From ChEMBL document CHEMBL1201862, “PubChem BioAssay data set” (2004)
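Cultured in 96-well plates, cells were exposed to test compound for 48 hours across five concentrations. GI50 = concentration required for 50% inhibition of growth.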 Activity calls are given as the source filed them. Rule as the data show it: active = GI50 up to about 1.1 µM and inactive = higher.

Experiments:
Experiment in all cases: growth of human tumour cells (NCI), 48 h
HCT-116 = tested on: HCT-116
U-251 = tested on: U-251
IGROV-1 = tested on: IGROV-1
OVCAR-5 = tested on: OVCAR-5
A549 = tested on: A549
HT-29 = tested on: HT-29
NCI-H23 = tested on: NCI-H23
MDA-N = tested on: MDA-N
COLO 205 = tested on: COLO 205
K562 = tested on: K562
HL-60 = tested on: HL-60
OVCAR-3 = tested on: OVCAR-3
LOX IMVI = tested on: LOX IMVI
CCRF-CEM = tested on: CCRF-CEM
SNB-75 = tested on: SNB-75
SW-620 = tested on: SW-620
OVCAR-8 = tested on: OVCAR-8
Hs-578T = tested on: Hs-578T
MDA-MB-435 = tested on: MDA-MB-435
SK-OV-3 = tested on: SK-OV-3
NCI/ADR-RES = tested on: NCI/ADR-RES
UACC-62 = tested on: UACC-62
SK-MEL-28 = tested on: SK-MEL-28
UO-31 = tested on: UO-31
DU-145 = tested on: DU-145
SNB-19 = tested on: SNB-19
CAKI-1 = tested on: CAKI-1
OVCAR-4 = tested on: OVCAR-4
NCI-H460 = tested on: NCI-H460
NCI-H522 = tested on: NCI-H522
HCT-15 = tested on: HCT-15
KM12 = tested on: KM12
ACHN = tested on: ACHN
EKVX = tested on: EKVX
UACC-257 = tested on: UACC-257
Malme-3M = tested on: Malme-3M
SF-268 = tested on: SF-268
T47D = tested on: T47D
MCF7 = tested on: MCF7
HOP-92 = tested on: HOP-92
786-0 = tested on: 786-0
MDA-MB-231 = tested on: MDA-MB-231
SR = tested on: SR
SF-539 = tested on: SF-539
SK-MEL-2 = tested on: SK-MEL-2
TK-10 = tested on: TK-10
MOLT-4 = tested on: MOLT-4
SN12C = tested on: SN12C
NCI-H226 = tested on: NCI-H226
A498 = tested on: A498
SF-295 = tested on: SF-295
SK-MEL-5 = tested on: SK-MEL-5
HCC 2998 = tested on: HCC 2998
HOP-62 = tested on: HOP-62
RPMI-8226 = tested on: RPMI-8226
PC-3 = tested on: PC-3
M14 = tested on: M14
RXF 393 = tested on: RXF 393

For CCC1(O)CC(OC2CC(N(C)C)C(OC3CC(O)C(OC4OC(C)C(=O)C=C4N)C(C)O3)C(C)O2)c2c(O)c3c(c(O)c2C1C(=O)OC)C(=O)c1cccc(O)c1C3=O (configuration not stated), the GI50 (HCT-116) was 0.617 nM (active), the GI50 (U-251) was 3.36 nM (active) and the GI50 (IGROV-1) was 3.54 nM (active). The GI50 (OVCAR-5) was 7.92 nM (active), the GI50 (A549) was 3.56 nM (active) and the GI50 (HT-29) was 4.75 nM (active). The GI50 (NCI-H23) was 18.9 nM (active), the GI50 (MDA-N) was 4.8 nM (active) and the GI50 (COLO 205) was 3.76 nM (active). For the same molecule, the GI50 (K562) was 0.196 nM (active), the GI50 (HL-60) was 1.54 nM (active) and the GI50 (OVCAR-3) was 22.5 nM (active). The GI50 (LOX IMVI) was 11.5 nM (active), the GI50 (CCRF-CEM) was 2.84 nM (active) and the GI50 (SNB-75) was 31.1 nM (active). The GI50 (SW-620) was 2.25 nM (active), the GI50 (OVCAR-8) was 3.98 nM (active) and the GI50 (Hs-578T) was 30.9 nM (active). For the same molecule, the GI50 (MDA-MB-435) was 3.71 nM (active), the GI50 (SK-OV-3) was 2.74 nM (active) and the GI50 (NCI/ADR-RES) was 91.6 nM (active). The GI50 (UACC-62) was 10.6 nM (active), the GI50 (SK-MEL-28) was 10.5 nM (active) and the GI50 (UO-31) was 47.2 nM (active). For the same molecule, the GI50 (DU-145) was 6.86 nM (active), the GI50 (SNB-19) was 9.29 nM (active) and the GI50 (CAKI-1) was 4.89 nM (active). The GI50 (OVCAR-4) was 10 nM (active), the GI50 (NCI-H460) was 0.452 nM (active) and the GI50 (NCI-H522) was 12.1 nM (active). The GI50 (HCT-15) was 41.8 nM, the GI50 (KM12) was 3.2 nM (active) and the GI50 (ACHN) was 4.18 nM (active). For the same molecule, the GI50 (EKVX) was 10.3 nM (active), the GI50 (UACC-257) was 8.36 nM (active) and the GI50 (Malme-3M) was 11.4 nM (active). The GI50 (SF-268) was 92.5 nM (active), the GI50 (T47D) was 11.8 nM (active) and the GI50 (MCF7) was 2 nM (active). The GI50 (HOP-92) was 16.4 nM (active), the GI50 (786-0) was 2.1 nM (active) and the GI50 (MDA-MB-231) was 58.3 nM (active). The GI50 (SR) was 4.13 nM (active), the GI50 (SF-539) was 7.59 nM (active) and the GI50 (SK-MEL-2) was 9.27 nM (active). The GI50 (TK-10) was 16.8 nM (active), the GI50 (MOLT-4) was 2.31 nM (active) and the GI50 (SN12C) was 25.9 nM (active). For the same molecule, the GI50 (NCI-H226) was 13.9 nM (active), the GI50 (A498) was 1.05 nM (active) and the GI50 (SF-295) was 1.34 nM (active). The GI50 (SK-MEL-5) was 4.17 nM (active), the GI50 (HCC 2998) was 30.2 nM (active) and the GI50 (HOP-62) was 23.9 nM (active). The GI50 (RPMI-8226) was 3.14 nM (active), the GI50 (PC-3) was 5.35 nM (active) and the GI50 (M14) was 10 nM (active).
O=C(NCCCl)NCc1ccccc1 was tested, and the GI50 (HCT-116) was > 100000 nM (inactive), the GI50 (U-251) was > 100000 nM (inactive) and the GI50 (IGROV-1) was > 100000 nM (inactive). For the same molecule, the GI50 (OVCAR-5) was > 100000 nM (inactive), the GI50 (A549) was > 100000 nM (inactive) and the GI50 (HT-29) was > 100000 nM (inactive). The GI50 (NCI-H23) was > 100000 nM (inactive), the GI50 (MDA-N) was > 100000 nM (inactive) and the GI50 (COLO 205) was > 100000 nM (inactive). For the same molecule, the GI50 (K562) was > 100000 nM (inactive), the GI50 (HL-60) was > 100000 nM (inactive) and the GI50 (OVCAR-3) was > 100000 nM (inactive). For the same molecule, the GI50 (LOX IMVI) was > 100000 nM (inactive), the GI50 (CCRF-CEM) was > 100000 nM (inactive) and the GI50 (SNB-75) was > 100000 nM (inactive). The GI50 (SW-620) was > 100000 nM (inactive), the GI50 (OVCAR-8) was > 100000 nM (inactive) and the GI50 (Hs-578T) was > 100000 nM (inactive). For the same molecule, the GI50 (MDA-MB-435) was > 100000 nM (inactive), the GI50 (SK-OV-3) was > 100000 nM (inactive) and the GI50 (NCI/ADR-RES) was > 100000 nM (inactive). For the same molecule, the GI50 (UACC-62) was > 100000 nM (inactive), the GI50 (SK-MEL-28) was > 100000 nM (inactive) and the GI50 (UO-31) was > 100000 nM (inactive). For the same molecule, the GI50 (DU-145) was > 100000 nM (inactive), the GI50 (SNB-19) was > 100000 nM (inactive) and the GI50 (CAKI-1) was > 100000 nM (inactive). The GI50 (OVCAR-4) was > 100000 nM (inactive), the GI50 (NCI-H460) was 52500 nM (inactive) and the GI50 (RXF 393) was > 100000 nM (inactive). The GI50 (NCI-H522) was > 100000 nM (inactive), the GI50 (HCT-15) was > 100000 nM and the GI50 (KM12) was > 100000 nM (inactive). The GI50 (ACHN) was > 100000 nM (inactive), the GI50 (EKVX) was > 100000 nM (inactive) and the GI50 (UACC-257) was > 100000 nM (inactive). The GI50 (Malme-3M) was > 100000 nM (inactive), the GI50 (SF-268) was > 100000 nM (inactive) and the GI50 (T47D) was > 100000 nM (inactive). The GI50 (MCF7) was > 100000 nM (inactive), the GI50 (HOP-92) was > 100000 nM (inactive) and the GI50 (786-0) was > 100000 nM (inactive). For the same molecule, the GI50 (MDA-MB-231) was > 100000 nM (inactive), the GI50 (SR) was > 100000 nM (inactive) and the GI50 (SK-MEL-2) was > 100000 nM (inactive). For the same molecule, the GI50 (MOLT-4) was > 100000 nM (inactive), the GI50 (SN12C) was > 100000 nM (inactive) and the GI50 (NCI-H226) was > 100000 nM (inactive). For the same molecule, the GI50 (A498) was > 100000 nM (inactive), the GI50 (SF-295) was > 100000 nM (inactive) and the GI50 (SK-MEL-5) was > 100000 nM (inactive). For the same molecule, the GI50 (HCC 2998) was > 100000 nM (inactive), the GI50 (HOP-62) was > 100000 nM (inactive) and the GI50 (RPMI-8226) was > 100000 nM (inactive). For the same molecule, the GI50 (PC-3) was > 100000 nM (inactive).
